Experimental data published in patent publication US10919916B2, “Boron-containing small molecules” (Bill & Melinda Gates Foundation, priority 2016, dated 2021).
In brackets after ≈: the same amount, converted by molar mass. Like-named read-outs stand apart in the source and are kept apart here.

What was measured:
[1] = test system: Staphylococcus aureus, MRSA (ATCC 33591); assay: Antibacterial MIC assay (microbroth dilution, CLSI); type: cell-based; settings: read-out: MIC Staphylococcus aureus, MRSA (ATCC 33591)
Description: (§1) All MIC testing of bacteria followed the Clinical and Laboratory Standards Institute (CLSI) guidelines for antimicrobial testing of aerobic bacteria (Methods for Dilution Antimicrobial Susceptibility Tests for Bacteria that Grow Aerobically; Approved Standard—Tenth Edition, M07-A10; Performance Standards for Antimicrobial Susceptibility Testing; Twenty-fifth Informational Supplement, M100-S25).
(§2) Briefly, the microbroth dilution MIC method was used to quantitatively measure the in vitro antibacterial activity of a compound against a given bacterial isolate. The following bacterial strains were evaluated: Staphylococcus aureus, MRSA (ATCC 33591) and Streptococcus pneumoniae (ATCC 49619). Bacteria were grown in cation-adjusted Mueller-Hinton broth, with additions as required per species growth requirements (e.g. 3% lysed horse blood for fastidious organisms such as S. pneumoniae). A direct colony suspension in saline was prepared from colonies on an overnight agar plate to achieve a turbidity equivalent to 0.5 McFarland standard, which was subsequently diluted into the assay plate to achieve 5×10^5 CFU/mL. Assays plates were prepared by 2-fold dilution of compound across the plate and included a positive growth control.

[2] = test system: Streptococcus pneumoniae (ATCC 49619); assay: as above; type: cell-based
Description: as §1
as §2, with “The following bacterial strains were evaluated: Staphylococcus aureus, MRSA (ATCC 33591) and Streptococcus pneumoniae (ATCC 49619).” left out

[3] = ATCC49619, read-out: MIC Streptococcus pneumoniae (ATCC 49619)
[4] = microbroth dilution, cation-adjusted Mueller-Hinton broth, 35° C. for 16-20 hours
[5] = ATCC49619, microbroth dilution, 3% lysed horse blood, 35° C. for 16-20 hours, read-out: MIC Streptococcus pneumoniae (ATCC 49619)

SMILES	MIC [1] [µg/mL]	MIC [2, 3] [µg/mL]	MIC [1, 4] [µg/mL]	MIC [2, 5] [µg/mL]
C=C[C@]1(C)C[C@@H](OC(=O)COc2ccc3c(c2F)B(O)OC3)[C@]2(C)[C@H](C)CC[C@]3(CCC(=O)[C@H]32)[C@@H](C)[C@@H]1O [Compound 2, (3aR,4R,5R,7S,8S,9R,9aS,12R)-8-hydroxy-4,7,9,12-tetramethyl-3-oxo-7-vinyldecahydro-4,9a-propanocyclopenta[8]annulen-5-yl 2-((7-fluoro-1-hydroxy-1,3-dihydrobenzo[c][1,2]oxaborol-6-yl)oxy)acetate]	< 0.25	0.5 to 2 (≈ 0.946 to 3.78 µM)		
C=C[C@]1(C)C[C@@H](OC(=O)COc2ccc3c(c2F)B(O)N(S(C)(=O)=O)N=C3)[C@]2(C)[C@H](C)CC[C@]3(CCC(=O)[C@H]32)[C@@H](C)[C@@H]1O [Compound 80, (3aR,4R,5R,7S,8S,9R,9aS,12R)-8-hydroxy-4,7,9,12-tetramethyl-3-oxo-7-vinyldecahydro-4,9a-propanocyclopenta[8]annulen-5-yl 2-((8-fluoro-1-hydroxy-2-(methylsulfonyl)-1,2-dihydrobenzo[d][1,2,3]diazaborinin-7-yl)oxy)acetate]	< 0.25	0.5 to 2 (≈ 0.808 to 3.23 µM)		
C=C[C@]1(C)C[C@@H](OC(=O)COc2ccc3c(c2F)B(O)N(C)N=C3)[C@]2(C)[C@H](C)CC[C@]3(CCC(=O)[C@H]32)[C@@H](C)[C@@H]1O [Compound 85, (3aR,4R,5R,7S,8S,9R,9aS,12R)-8-hydroxy-4,7,9,12-tetramethyl-3-oxo-7-vinyldecahydro-4,9a-propanocyclopenta[8]annulen-5-yl 2-((8-fluoro-1-hydroxy-2-methyl-1,2-dihydrobenzo[d][1,2,3]diazaborinin-7-yl)oxy)acetate]	< 0.25	< 0.25		
C=C[C@]1(C)C[C@@H](OC(=O)COc2ccc3c(c2F)B(O)OC3CN)[C@]2(C)[C@H](C)CC[C@]3(CCC(=O)[C@H]32)[C@@H](C)[C@@H]1O.Cl (stereo partly drawn) [Compound 29, (3aR,4R,5R,7S,8S,9R,9aS,12R)-8-hydroxy-4,7,9,12-tetramethyl-3-oxo-7-vinyldecahydro-4,9a-propanocyclopenta[8]annulen-5-yl 2-((3-(aminomethyl)-7-fluoro-1-hydroxy-1,3-dihydrobenzo[c][1,2]oxaborol-6-yl)oxy)acetate Hydrochloride]			0.5 to 2	0.5 to 2
C=C[C@]1(C)C[C@@H](OC(=O)COc2ccc3c(c2)B(O)N(C)N=C3)[C@]2(C)[C@H](C)CC[C@]3(CCC(=O)[C@H]32)C[C@@H]1O [Compound 83, (3aR,4R,5R,7S,8S,9aS,12R)-8-hydroxy-4,7,12-trimethyl-3-oxo-7-vinyldecahydro-4,9a-propanocyclopenta[8]annulen-5-yl 2-((1-hydroxy-2-methyl-1,2-dihydrobenzo[d][1,2,3]diazaborinin-7-yl)oxy)acetate]			< 0.25	< 0.25
C=C[C@]1(C)C[C@@H](OC(=O)COC(=O)Nc2ccc3c(c2F)B(O)OC3)[C@]2(C)[C@H](C)CC[C@]3(CCC(=O)[C@H]32)[C@@H](C)[C@@H]1O [Compound 55, (3aR,4R,5R,7S,8S,9R,9aS,12R)-8-hydroxy-4,7,9,12-tetramethyl-3-oxo-7-vinyldecahydro-4,9a-propanocyclopenta[8]annulen-5-yl 2-(((7-fluoro-1-hydroxy-1,3-dihydrobenzo[c][1,2]oxaborol-6-yl)carbamoyl)oxy)acetate]	0.5 to 2 (≈ 0.875 to 3.5 µM)	0.5 to 2 (≈ 0.875 to 3.5 µM)		
C=C[C@]1(C)C[C@@H](OC(=O)CS(=O)(=O)c2ccc3c(c2)B(O)OC3)[C@]2(C)[C@H](C)CC[C@]3(CCC(=O)[C@H]32)[C@@H](C)[C@@H]1O [Compound 64, (3aR,4R,5R,7S,8S,9R,9aS,12R)-8-hydroxy-4,7,9,12-tetramethyl-3-oxo-7-vinyldecahydro-4,9a-propanocyclopenta[8]annulen-5-yl 2-((1-hydroxy-1,3-dihydrobenzo[c][1,2]oxaborol-6-yl)sulfonyl)acetate]	< 0.25	0.5 to 2 (≈ 0.895 to 3.58 µM)		
C=C[C@]1(C)C[C@@H](OC(=O)COc2cc3c(cc2C)COB3O)[C@]2(C)[C@H](C)CC[C@]3(CCC(=O)[C@H]32)[C@@H](C)[C@@H]1O [Compound 10, (3aR,4R,5R,7S,8S,9R,9aS,12R)-8-hydroxy-4,7,9,12-tetramethyl-3-oxo-7-vinyldecahydro-4,9a-propanocyclopenta[8]annulen-5-yl 2-((1-hydroxy-5-methyl-1,3-dihydrobenzo[c][1,2]oxaborol-6-yl)oxy)acetate]			< 0.25	< 0.25
C=C[C@]1(C)C[C@@H](OC(=O)COc2cc3c(cc2F)B(O)OC3)[C@]2(C)[C@H](C)CC[C@]3(CCC(=O)[C@H]32)[C@@H](C)[C@@H]1O [Compound 34, (3aR,4R,5R,7S,8S,9R,9aS,12R)-8-hydroxy-4,7,9,12-tetramethyl-3-oxo-7-vinyldecahydro-4,9a-propanocyclopenta[8]annulen-5-yl 2-((6-fluoro-1-hydroxy-1,3-dihydrobenzo[c][1,2]oxaborol-5-yl)oxy)acetate]	< 0.25	0.5 to 2 (≈ 0.946 to 3.78 µM)		
C=C[C@]1(C)C[C@@H](OC(=O)CNCc2ccc3c(c2)B(O)OC3)[C@]2(C)[C@H](C)CC[C@]3(CCC(=O)[C@H]32)[C@@H](C)[C@@H]1O [Compound 59, (3aR,4R,5R,7S,8S,9R,9aS,12R)-8-hydroxy-4,7,9,12-tetramethyl-3-oxo-7-vinyldecahydro-4,9a-propanocyclopenta[8]annulen-5-yl ((1-hydroxy-1,3-dihydrobenzo[c][1,2]oxaborol-6-yl)methyl)glycinate]	0.5 to 2 (≈ 0.955 to 3.82 µM)	4 to 32 (≈ 7.64 to 61.1 µM)		
C=C[C@]1(C)C[C@@H](OC(=O)COc2cc(F)c3c(c2)COB3O)[C@]2(C)[C@H](C)CC[C@]3(CCC(=O)[C@H]32)[C@@H](C)[C@@H]1O [Compound 33, (3aR,4R,5R,7S,8S,9R,9aS,12R)-8-hydroxy-4,7,9,12-tetramethyl-3-oxo-7-vinyldecahydro-4,9a-propanocyclopenta[8]annulen-5-yl 2-((7-fluoro-1-hydroxy-1,3-dihydrobenzo[c][1,2]oxaborol-5-yl)oxy)acetate]	< 0.25	0.5 to 2 (≈ 0.946 to 3.78 µM)		
C=C[C@]1(C)C[C@@H](OC(=O)NCc2ccc3c(c2)B(O)OC3)[C@]2(C)[C@H](C)CC[C@]3(CCC(=O)[C@H]32)[C@@H](C)[C@@H]1O [Compound 56, (3aR,4R,5R,7S,8S,9R,9aS,12R)-8-hydroxy-4,7,9,12-tetramethyl-3-oxo-7-vinyldecahydro-4,9a-propanocyclopenta[8]annulen-5-yl ((1-hydroxy-1,3-dihydrobenzo[c][1,2]oxaborol-6-yl)methyl) carbamate]			< 0.25	0.5 to 2 (≈ 0.981 to 3.93 µM)
C=C[C@]1(C)C[C@@H](OC(=O)COc2ccc3c(c2F)B(O)N(C(C)=O)N=C3)[C@]2(C)[C@H](C)CC[C@]3(CCC(=O)[C@H]32)[C@@H](C)[C@@H]1O [Compound 89, (3aR,4R,5R,7S,8S,9R,9aS,12R)-8-hydroxy-4,7,9,12-tetramethyl-3-oxo-7-vinyldecahydro-4,9a-propanocyclopenta[8]annulen-5-yl 2-((2-acetyl-8-fluoro-1-hydroxy-1,2-dihydrobenzo[d][1,2,3]diazaborinin-7-yl)oxy)acetate]	< 0.25	< 0.25		
